In brackets after ≈: the same amount, converted by molar mass. Several values for one entry are separate records, joined by “and”; a condition that tells them apart may be missing. Equal entries are not always repeated. Where two headings read alike, the source gives them in different places. *1 amine or outer side, *2 acyl side, *3 side chain or, on linkers, in order; H or OH if unused. Where a SMILES comes first, the peptide text is derived from it. [ ]: non-standard residue; d: D form. X1 = C#CCn1cc(C[C@H](N[*:1])C(=O)[*:2])c2ccccc21; NMeLeu(5-OH,4R) = CN[C@@H](C[C@@H](C)CO)C(=O)O; Phe(βR-OMe) = CO[C@H](c1ccccc1)[C@H](N)C(=O)O; NMeL = CN[C@@H](CC(C)C)C(=O)O
How the values were obtained:
[1] = target: ClpC1 NTD protein (M. tuberculosis) (Mycobacterium tuberculosis, UniProt P9WPC9); assay: biochemical; type: binding; settings: SPR
Sequence of ClpC1 NTD protein (M. tuberculosis) (P9WPC9 1-156, looked up, natural form): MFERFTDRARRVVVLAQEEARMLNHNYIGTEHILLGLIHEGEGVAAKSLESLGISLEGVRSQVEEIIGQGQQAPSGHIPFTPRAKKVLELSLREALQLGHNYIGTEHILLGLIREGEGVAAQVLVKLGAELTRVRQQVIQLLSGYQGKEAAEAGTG

in vitro = settings: human
How it was run: (§1)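 Values are bidirectional Caco-2 apparent permeabilities, P(A−B) and P(B−A), given in 10^-6 cm s-1. The efflux ratio divides P(B−A) by P(A−B), and intrinsic permeability averages the two directions.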

Caco-2 monolayers = assay: in vitro; settings: human, Caco-2
How it was run: as §1

[2] = type: in vitro ADME, Human; settings: human, pH 7.4
[3] = system: M. tuberculosis H37Rv (ATCC 27294); assay: microbe, parasite or virus in culture; type: cell-based
Msm 607 = assay: microbe, parasite or virus in culture; type: cell-based
Enterococcus faecium = assay: MIC ESKAPES panel, Enterococcus faecium; type: cell-based
How it was run: (§2)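 CLSI broth microdilution was run in Mueller Hinton broth with an inoculum of 3–7 × 10^5 cfu/ml at 37 °C. Turbidity was read on day 2; clear wells indicated growth inhibition.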

Enterobacter cloacae = assay: MIC ESKAPES panel, Enterobacter cloacae; type: cell-based
How it was run: as §2

Mycobacterium avium = assay: microbe, parasite or virus in culture; type: cell-based
Mtb H37Rv = assay: Minimum bactericidal concentration (MBC), Mtb H37Rv; type: cell-based, Mycobacterium tuberculosis; settings: Mycobacterium tuberculosis, H37RV
[4] = system: non-replicating cells of Mtb H37Rv; type: cell-based, Mycobacterium tuberculosis; settings: three replicate columns
[5] = target: ClpC1-NTD substrate, M. tuberculosis ClpC1P1P2 (Mycobacterium tuberculosis, UniProt P9WPC9); assay: biochemical; type: biochemical; settings: Mtb
Sequence of ClpC1-NTD substrate, M. tuberculosis ClpC1P1P2 (P9WPC5 whole entry): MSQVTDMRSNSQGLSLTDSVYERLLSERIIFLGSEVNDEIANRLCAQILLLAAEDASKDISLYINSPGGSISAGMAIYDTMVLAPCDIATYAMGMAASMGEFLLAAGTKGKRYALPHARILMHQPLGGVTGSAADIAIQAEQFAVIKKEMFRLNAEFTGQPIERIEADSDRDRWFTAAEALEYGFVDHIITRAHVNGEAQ
Sequence of ClpC1-NTD substrate, M. tuberculosis ClpC1P1P2 (P9WPC9 whole entry): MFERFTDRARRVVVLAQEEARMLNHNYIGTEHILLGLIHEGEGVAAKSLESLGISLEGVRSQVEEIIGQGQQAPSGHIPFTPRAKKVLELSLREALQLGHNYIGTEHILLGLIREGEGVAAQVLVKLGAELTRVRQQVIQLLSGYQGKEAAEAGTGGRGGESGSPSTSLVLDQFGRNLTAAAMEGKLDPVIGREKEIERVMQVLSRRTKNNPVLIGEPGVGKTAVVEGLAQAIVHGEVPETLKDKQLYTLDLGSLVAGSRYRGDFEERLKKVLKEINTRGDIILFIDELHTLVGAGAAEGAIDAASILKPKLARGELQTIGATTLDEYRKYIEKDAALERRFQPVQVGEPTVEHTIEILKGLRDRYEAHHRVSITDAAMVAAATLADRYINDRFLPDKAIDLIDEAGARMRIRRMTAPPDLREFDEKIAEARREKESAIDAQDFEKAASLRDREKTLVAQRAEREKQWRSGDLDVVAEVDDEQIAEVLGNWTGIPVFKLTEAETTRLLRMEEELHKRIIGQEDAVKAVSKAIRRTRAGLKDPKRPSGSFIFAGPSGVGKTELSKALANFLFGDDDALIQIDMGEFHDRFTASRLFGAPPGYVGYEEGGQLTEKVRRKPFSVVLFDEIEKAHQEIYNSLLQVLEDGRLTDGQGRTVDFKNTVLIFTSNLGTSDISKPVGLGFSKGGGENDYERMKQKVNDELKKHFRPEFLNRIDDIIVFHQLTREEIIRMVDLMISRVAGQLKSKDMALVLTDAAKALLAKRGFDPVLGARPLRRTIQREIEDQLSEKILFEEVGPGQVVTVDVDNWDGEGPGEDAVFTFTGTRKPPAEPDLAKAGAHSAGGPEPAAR
Sequence of ClpC1-NTD substrate, M. tuberculosis ClpC1P1P2 (P9WPC3 whole entry, further chain): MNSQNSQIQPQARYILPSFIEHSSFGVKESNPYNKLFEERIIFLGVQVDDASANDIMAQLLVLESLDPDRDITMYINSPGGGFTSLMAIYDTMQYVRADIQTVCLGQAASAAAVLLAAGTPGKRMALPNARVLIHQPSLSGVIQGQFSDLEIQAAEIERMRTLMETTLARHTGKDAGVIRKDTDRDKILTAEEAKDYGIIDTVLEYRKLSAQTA

[6] = target: endogenous ClpC1 in Msm #607 cells (Mycolicibacterium smegmatis, UniProt A0R574); type: cell-based, M. smegmatis
Sequence of endogenous ClpC1 in Msm #607 cells (A0R574 whole entry): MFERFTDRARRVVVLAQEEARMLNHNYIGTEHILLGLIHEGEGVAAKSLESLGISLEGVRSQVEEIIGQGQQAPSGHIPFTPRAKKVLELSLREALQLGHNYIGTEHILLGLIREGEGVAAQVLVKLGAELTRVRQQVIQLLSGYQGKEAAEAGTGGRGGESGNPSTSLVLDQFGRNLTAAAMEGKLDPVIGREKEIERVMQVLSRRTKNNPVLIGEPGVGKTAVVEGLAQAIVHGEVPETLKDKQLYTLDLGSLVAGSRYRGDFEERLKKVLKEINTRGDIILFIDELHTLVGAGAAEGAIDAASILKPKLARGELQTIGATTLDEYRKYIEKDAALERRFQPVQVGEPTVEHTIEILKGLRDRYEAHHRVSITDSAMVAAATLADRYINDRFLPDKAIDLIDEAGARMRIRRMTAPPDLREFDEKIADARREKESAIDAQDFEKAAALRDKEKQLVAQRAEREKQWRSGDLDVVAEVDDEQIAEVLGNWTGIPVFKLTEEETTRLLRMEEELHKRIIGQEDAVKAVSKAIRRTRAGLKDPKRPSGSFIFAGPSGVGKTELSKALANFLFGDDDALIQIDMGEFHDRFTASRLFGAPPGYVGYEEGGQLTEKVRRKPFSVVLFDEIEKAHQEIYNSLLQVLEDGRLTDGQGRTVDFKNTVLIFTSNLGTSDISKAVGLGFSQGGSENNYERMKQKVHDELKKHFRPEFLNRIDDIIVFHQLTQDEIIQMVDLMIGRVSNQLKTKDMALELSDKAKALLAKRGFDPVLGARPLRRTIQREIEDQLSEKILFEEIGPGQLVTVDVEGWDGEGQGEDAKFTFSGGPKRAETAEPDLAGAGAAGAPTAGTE

[7] = system: replicating Mtb H37Rv cells; assay: Resazurin growth assay, replicating Mtb H37Rv (Supplementary Fig. 2); type: cell-based, Mycobacterium tuberculosis; settings: three replicate columns

For C#CCn1cc(C[C@@H]2NC(=O)[C@H](C(C)C)NC(=O)[C@H](CC(C)C)N(C)C(=O)[C@H](C(C)C)NC(=O)[C@H]([C@H](OC)c3ccccc3)NC(=O)[C@H](C)NC(=O)[C@H](C[C@@H](C)CO)N(C)C2=O)c2ccccc21 [Compound 5] (cyclo(A[Phe(βR-OMe)]V[NMeL]V[X1][NMeLeu(5-OH,4R)])), the Kd ([1]; individual measurements (source data), read-out: KD ClpC1-NTD) was 3.63 nM and 3.45 nM, the “koff ClpC1-NTD” value ([1]; single independent measurements) was 0.04 s⁻¹ and the koff ([1]; single independent measurements, read-out: koff ClpC1-NTD) was 0.02 s⁻¹. For the same compound, the Kd ([1]; read-out: ClpC1-NTD KD Mean ± SD) was 3.5 ± 0.1 nM, the efflux ratio (in vitro; Caco-2) was 20.4 and the Papp A→B (in vitro; Caco-2, CACO permeability PEAB) was 0.95 ×10⁻⁶ cm/s. It also gave a Papp B→A (in vitro; Caco-2, CACO permeability PEBA) of 19 ×10⁻⁶ cm/s, a Papp A→B (in vitro; Caco-2, Caco-2 permeability P (A-B)) of 1.1 ×10⁻⁶ cm/s and a Papp B→A (in vitro; Caco-2, Caco-2 permeability P (B-A)) of 23 ×10⁻⁶ cm/s. The “Caco-2 Int. Perm” value (Caco-2 monolayers) was 12.1, the “Influence of N-methylation on permeability” value (Caco-2 monolayers) was 9.3 and the “Hepatocyte Human” value [2] was 12 %Qh. For the same compound, the “Hepatocyte Stability Human QH” value [2] was 12.386%, the MIC ([3]; M. tuberculosis H37Rv 27294, single well replicates, read-out: MIC) was 3.125 µM (2×) and 1.56 µM and the MIC ([3]; Mycobacterium tuberculosis, M. tuberculosis H37Rv strain, read-out: MIC Mtb H37Rv Mean ± SD) was 1.6 µM (≈ 1.51 µg/mL). The MIC ([3]; Mycobacterium tuberculosis, Mtb H37Rv (Supplementary Table 2), read-out: MIC Mtb) was 1.6 µM (≈ 1.51 µg/mL), the MIC ([3]; Mycobacterium tuberculosis, Mtb H37Rv, mean ± SD, n = 3 well replicates, read-out: MIC) was 2.6 ± 0.9 µM (≈ 2.45 µg/mL) and the MIC ([3]; Mycobacterium tuberculosis, Set 1, read-out: MIC (Mtb H37Rv) Set 1) was 1.56 µM and 1.47 µg/mL. For the same compound, the MIC ([3]; Mycobacterium tuberculosis, Set 2, read-out: MIC (Mtb H37Rv) Set 2) was 1.56 µM and 1.47 µg/mL, the MIC ([3]; Mycobacterium tuberculosis, Set 3, done at a different day than Set 1 and Set 2, read-out: MIC (Mtb H37Rv) Set 3) was 1.56 µM and 1.47 µg/mL and the MIC ([3]; Mycobacterium tuberculosis, individual example (Supplementary Table 11), read-out: MIC Mtb H37Rv) was 1.6 µM and 1.5 µg/mL. For the same compound, the MIC ([3]; Mycobacterium tuberculosis, individual measurements (source data), read-out: Mtb MIC) was 1.56 µM (≈ 1.47 µg/mL), the MIC ([3]; Mycobacterium tuberculosis, mean of 3 experiments +/- SD, unit taken from the sets above in the same table, read-out: MIC data (Mtb H37Rv) (+/- SD)) was 1.56 µM and 1.47 µg/mL and the MIC ([3]; Mycobacterium tuberculosis, single determinations, read-out: Mtb MIC) was 1.56 µM (≈ 1.47 µg/mL). The MIC (Msm 607; Mycolicibacterium smegmatis, 607, read-out: MIC Msm 607) was 25 µM (≈ 23.5 µg/mL), the MIC (Msm 607; Mycolicibacterium smegmatis, 607, read-out: MIC Msm #607, individual example (Supplementary Table 11)) was 25 µM and 23.5 µg/mL and the MIC (Msm 607; Mycolicibacterium smegmatis, 607, read-out: Msm 607 MIC, single determinations) was 25 µM (≈ 23.5 µg/mL). The MIC (Msm 607; Mycolicibacterium smegmatis, ATCC607, Set-1, read-out: MIC (Msm ATCC607) Set-1) was 12.5 µM and 11.8 µg/mL, the MIC (Msm 607; Mycolicibacterium smegmatis, ATCC607, Set-2, read-out: MIC (Msm ATCC607) Set-2) was 25 µM and 23.5 µg/mL and the MIC (Msm 607; Mycolicibacterium smegmatis, ATCC607, Set-3, done at a different day than Set 1 and Set 2, read-out: MIC (Msm ATCC607) Set-3) was 12.5 µM and 11.8 µg/mL. The MIC (Msm 607; Mycolicibacterium smegmatis, ATCC607, mean of 3 experiments ± SD, read-out: MIC including standard deviations (Msm ATCC607)) was 16.6 µM and 15.7 µg/mL, the MIC (Enterococcus faecium; Enterococcus faecium, Gram positive, n = 3 well replicates) was > 50 µM and the MIC (Enterococcus faecium; Enterococcus faecium, Gram-Positive Bacteria, replicates 1-3) was > 47 µg/mL. For the same compound, the MIC (Enterococcus faecium; Gram-Positive Bacteria, replicates 1-3) was >50 µM, the MIC (Enterobacter cloacae; Enterobacter cloacae, Gram negative, n = 3 well replicates) was > 50 µM and the MIC (Enterobacter cloacae; Enterobacter cloacae, Gram-Negative Bacteria, replicates 1-3) was > 47 µg/mL. For the same compound, the MIC (Enterobacter cloacae; Gram-Negative Bacteria, replicates 1-3) was >50 µM, the MIC (Mycobacterium avium; Experiment 1, read-out: MIC Mycobacterium avium) was 6.3 µM and the “MIC (µg/ml) Mycobacterium avium” value (Mycobacterium avium; Experiment 2, three replicate columns) was 5.88 µg/mL (≈ 6.25 µM). For the same compound, the MIC (Mycobacterium avium; Experiment 2, three replicate columns, read-out: MIC (µM) Mycobacterium avium) was 6.25 µM, the MIC (Mycobacterium avium; Mycobacterium avium, Experiment 1, read-out: MIC Mycobacterium avium) was 5.9 µg/mL and the MIC (Mycobacterium avium; Mycobacterium avium, Experiment 2, three replicate columns, read-out: MIC (µM) Mycobacterium avium) was 6.25 µM. The MIC (Mycobacterium avium; Mycobacterium avium, Experiment 2, three replicate columns, read-out: MIC (µg/ml) Mycobacterium avium) was 5.88 µg/mL, the MIC (Mycobacterium avium; Mycobacterium avium, mean ± SD, read-out: MIC Mycobacterium avium) was 6.3 µM and the MBC (Mtb H37Rv; read-out: MBC (from Set 3) Mtb H37Rv) was 6.25 µM and 5.88 µg/mL. The MBC (Mtb H37Rv; individual example, read-out: MBC Mtb H37Rv) was 6.3 µM and 5.9 µg/mL, the “Supplementary Figure 2 dose-response value, starvation-induced non-replicating H37Rv cells” value ([4]; Conc. 0.0488281 µM) was 103.448 and 95.0508 and 97.0505 and the “Supplementary Figure 2 dose-response value, starvation-induced non-replicating H37Rv cells” value ([4]; Conc. 0.0976562 µM) was 90.7405 and 81.0762 and 83.793. For the same compound, the “Supplementary Figure 2 dose-response value, starvation-induced non-replicating H37Rv cells” value ([4]; Conc. 0.195312 µM) was 92.9713 and 85.6175 and 87.7368, the “Supplementary Figure 2 dose-response value, starvation-induced non-replicating H37Rv cells” value ([4]; Conc. 0.390625 µM) was 86.478 and 81.4188 and 83.0521 and the “Supplementary Figure 2 dose-response value, starvation-induced non-replicating H37Rv cells” value ([4]; Conc. 0.78125 µM) was 85.259 and 79.8652 and 81.4825. The “Supplementary Figure 2 dose-response value, starvation-induced non-replicating H37Rv cells” value ([4]; Conc. 1.5625 µM) was 86.0796 and 80.7177 and 79.658, the “Supplementary Figure 2 dose-response value, starvation-induced non-replicating H37Rv cells” value ([4]; Conc. 3.125 µM) was 84.8208 and 76.8536 and 80.407 and the “Supplementary Figure 2 dose-response value, starvation-induced non-replicating H37Rv cells” value ([4]; Conc. 6.25 µM) was 82.0881 and 78.7498 and 78.7099. The “Supplementary Figure 2 dose-response value, starvation-induced non-replicating H37Rv cells” value ([4]; Conc. 25 µM) was 68.1135 and 65.0382 and 65.6038, the “Supplementary Figure 2 dose-response value, starvation-induced non-replicating H37Rv cells” value ([4]; Conc. 50 µM) was 63.9387 and 63.1101 and 60.943 and the “Supplementary Figure 2 dose-response value, starvation-induced non-replicating H37Rv cells” value ([4]; Conc. 100 µM) was 61.9787 and 54.8959 and 58.7122. For the same compound, the DC50 ([5]; Measurement 1-4, read-out: DC50, single measurements) was > 100000 nM, the DC50 ([5]; mean of the measurements, read-out: DC50, Mean) was > 100000 nM and the ClpC1 peak area ([6]; 100 µM, Figure 5c, well replicates of 3 experiments) was 296040 and 308121 and 346162 and 550976 and 476988 and 428795 and 417149 and 443522 and 406576. The “intracellular degradation of ClpC1” value ([6]; Msm #607, 24 h, result in words) was “did not induce degradation of ClpC1”, the “Supplementary Figure 2 dose-response value, replicating H37Rv cells” value ([7]; Conc. 0.0488281 µM) was 98.0652 and 83.9808 and 80.51 and the “Supplementary Figure 2 dose-response value, replicating H37Rv cells” value ([7]; Conc. 0.0976562 µM) was 93.0506 and 83.7138 and 106.369. For the same compound, the “Supplementary Figure 2 dose-response value, replicating H37Rv cells” value ([7]; Conc. 0.195312 µM) was 80.9008 and 79.6239 and 83.1102, the “Supplementary Figure 2 dose-response value, replicating H37Rv cells” value ([7]; Conc. 0.390625 µM) was 100.805 and 94.8498 and 103.432 and the “Supplementary Figure 2 dose-response value, replicating H37Rv cells” value ([7]; Conc. 0.78125 µM) was 90.0247 and 88.21 and 77.7086. For the same compound, the “Supplementary Figure 2 dose-response value, replicating H37Rv cells” value ([7]; Conc. 1.5625 µM) was 89.1967 and 85.691 and 102.875, the “Supplementary Figure 2 dose-response value, replicating H37Rv cells” value ([7]; Conc. 3.125 µM) was 81.2645 and 83.4662 and 77.6892 and the “Supplementary Figure 2 dose-response value, replicating H37Rv cells” value ([7]; Conc. 6.25 µM) was 79.2563 and 81.2993 and 97.3301. The “Supplementary Figure 2 dose-response value, replicating H37Rv cells” value ([7]; Conc. 25 µM) was 23.3248 and 18.2173 and 22.7212, the “Supplementary Figure 2 dose-response value, replicating H37Rv cells” value ([7]; Conc. 50 µM) was 9.562 and 6.199 and 9.0701 and the “Supplementary Figure 2 dose-response value, replicating H37Rv cells” value ([7]; Conc. 100 µM) was 10.3547 and 8.316 and 5.8624.

— publication PMC10914731, “Homo-BacPROTAC-induced degradation of ClpC1 as a strategy against drug-resistant mycobacteria” (Nature Communications, 2024)
